From publication PMC9317016, “Oleocanthal Attenuates Metastatic Castration-Resistant Prostate Cancer Progression and Recurrence by Targeting SMYD2” (Cancers, 2022)

Target: SMYD2 (Homo sapiens, UniProt Q9NRG4)
Assay: scintillation proximity methyltransferase assay, 3H-methyl incorporation into p53 peptide ([…]), single […] dose
Type: biochemical

Sequence of SMYD2 (Q9NRG4 whole entry): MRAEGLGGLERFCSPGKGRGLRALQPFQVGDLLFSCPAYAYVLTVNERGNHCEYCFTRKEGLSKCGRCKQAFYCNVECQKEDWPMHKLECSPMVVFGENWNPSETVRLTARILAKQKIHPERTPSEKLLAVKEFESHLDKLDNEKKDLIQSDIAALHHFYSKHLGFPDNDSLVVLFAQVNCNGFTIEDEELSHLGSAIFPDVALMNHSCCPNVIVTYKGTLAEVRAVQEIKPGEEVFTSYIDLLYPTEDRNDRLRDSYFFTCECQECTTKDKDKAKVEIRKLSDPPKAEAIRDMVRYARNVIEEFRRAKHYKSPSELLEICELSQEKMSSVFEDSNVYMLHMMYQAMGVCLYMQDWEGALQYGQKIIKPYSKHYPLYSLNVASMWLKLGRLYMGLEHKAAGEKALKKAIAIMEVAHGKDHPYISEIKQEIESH

inhibition at 10 µM: 90.8%
Compound: C/C=C(/C=O)[C@@H](CC=O)CC(=O)OCCc1ccc(O)cc1 [OC, S-(-)-oleocanthal]
